Converted amounts (≈) assume the structure as drawn. Where two headings read alike, the source gives them in different places.
Legend:
[1] = tested on: pneumococci with ciprofloxacin MICs ≧8 μg/ml; assay: Quinolone agar dilution MICs of 28 ciprofloxacin resistant pneumococcal strains, correlated with QRDR mutations; assay type: cell-based, Streptococcus pneumoniae
Experimental: Additionally these strains were tested for mutations in parC, gyrA, parE, and gyrB (Pan, et al. Antimicrob. Agents Chemother. 40:2321-2326, 1996) and for efflux mechanism (Brenwald, et ail., Antimicrob. Agents Chemother. 42:2032-2035, 1998).
Gemifloxacin susceptibility powder was obtained from SmithKline Beecham Laboratories, Harlow, UK. Agar dilution methodology was performed on 28 strains as described previously (M. R. Jacobs, Clin. Infect. Dis. 15: 119-127, […] and M. R. Jacobs, Rev. Med. Microbiol. 6:77-93, 1995), using Mueller-Hinton altar (BBL Microbiology Systems, Cockeysville, Md.) supplemented with 5% sheep blood. Standard quality control strains, including Streptococcus pneumoniae ATCC 49619, were included in each run of agar dilution MICs.

pneumococcal strains = assay: Microbroth dilution MICs of strains tested by time-kill and PAE; assay type: cell-based; conditions: Streptococcus pneumoniae, read-out: Microdilution MIC
Outline: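 Broth MICs per NCCLS in cation-adjusted Mueller-Hinton broth with 5% lysed defibrinated horse blood. Used for 12 time-kill and 6 PAE strains. S. pneumoniae ATCC 49619 run as quality control.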

[2] = tested on: quinolone-resistant Haemophilus influenzae strains; assay: Microdilution MIC determination in HTM for quinolone-resistant Haemophilus influenzae strains; assay type: cell-based; conditions: 9 quinolone-resistant Haemophilus influenzae strains
Experimental: Inocula were prepared from chocolate agar plates incubated for a full 24 hours by the direct colony suspension method as follows: In a tube of Mueller-Hinton broth (Difco), an organism suspension was made to a density of a 0.5 McFarland standard (1×10^8 CFU/ml). The latter inoculum was diluted in sterile saline such that final organisms suspensions in trays yielded colony counts of 3-8×10^5 CFU/ml. Frozen microdilution trays were obtained from MicroMedia Systems, Inc. (Cleveland, Ohio, USA). Each tray contained all antimicrobials prepared in freshly made HTM. Wells were inoculated with 100 μl suspensions and incubated in ambient air at 35° C. for 20-24 hours. The lowest drug concentration showing no growth was read as the MIC. Standard quality control strains, including H. influenzae ATCC 49766, H. influenzae ATCC 49247, Staphylococcus aureus ATCC 29213 and Escherichia coli ATCC 25922 were included with each run.

N[C@@H]1[C@H]2CN(c3nc4c(cc3F)c(=O)c(C(=O)O)cn4-c3ccc(F)cc3F)C[C@@H]12 [Trovafloxacin, trovafloxacin]
MIC50 ([1]; Streptococcus pneumoniae): 1 µg/mL (≈ 2.4 µM)
MIC90 ([1]; Streptococcus pneumoniae): 4 µg/mL (≈ 9.61 µM)
MIC ([1]; Streptococcus pneumoniae, read-out: MICs in strains with three or four QRDR mutations, 20 strains, bound holds in all 20 (ciprofloxacin, levofloxacin, sparfloxacin), 19 (grepafloxacin), 10 (trovafloxacin), 18 (gemifloxacin)): > 2 µg/mL
MIC ([1]; Streptococcus pneumoniae, read-out: MICs in strains with three or four QRDR mutations, 21 strains, bound holds in all 21 (ciprofloxacin, levofloxacin, sparfloxacin), 20 (grepafloxacin), 11 (trovafloxacin), 19 (gemifloxacin)): ≥ 2 µg/mL
MIC ([1]; Streptococcus pneumoniae, strain 1, ParC S79-F, ParE I460-V, GyrA S81-F, GyrB None): 2 µg/mL (≈ 4.8 µM)
MIC ([1]; Streptococcus pneumoniae, strain 1, ParC S79-F, ParE I460-V, GyrA S83-F, GyrB None): 2 µg/mL (≈ 4.8 µM)
MIC ([1]; Streptococcus pneumoniae, strain 2, ParC S79-Y, ParE I460-V, GyrA None, GyrB None): 0.25 µg/mL (≈ 0.6 µM)
MIC ([1]; Streptococcus pneumoniae, strain 3, ParC D83-N, ParE I460-V, GyrA S81-F, GyrB None): 0.25 µg/mL (≈ 0.6 µM)
MIC ([1]; Streptococcus pneumoniae, strain 3, ParC D83-N, ParE I460-V, GyrA S83-F, GyrB None): 0.25 µg/mL (≈ 0.6 µM)
MIC ([1]; Streptococcus pneumoniae, strain 4, ParC S79-F, ParE I460-V, GyrA S81-F, GyrB None): 0.25 µg/mL (≈ 0.6 µM)
MIC ([1]; Streptococcus pneumoniae, strain 4, ParC S79-F, ParE I460-V, GyrA S83-F, GyrB None): 0.25 µg/mL (≈ 0.6 µM)
MIC ([1]; Streptococcus pneumoniae, strain 5, ParC R95-C, ParE D435-N, GyrA S81-F, GyrB None): 0.25 µg/mL (≈ 0.6 µM)
MIC ([1]; Streptococcus pneumoniae, strain 5, ParC R95-C, ParE D435-N, GyrA S83-F, GyrB None): 0.25 µg/mL (≈ 0.6 µM)
MIC ([1]; Streptococcus pneumoniae, strain 6, ParC S79-Y, ParE I460-V, GyrA E85-K, GyrB None): 2 µg/mL (≈ 4.8 µM)
MIC ([1]; Streptococcus pneumoniae, strain 6, ParC S79-Y, ParE I460-V, GyrA E87-K, GyrB None): 2 µg/mL (≈ 4.8 µM)
MIC ([1]; Streptococcus pneumoniae, strain 7, ParC None, ParE I460-V, GyrA None, GyrB None): 0.5 µg/mL (≈ 1.2 µM)
MIC ([1]; Streptococcus pneumoniae, strain 8, ParC S79-Y, ParE None, GyrA None, GyrB None): 0.5 µg/mL (≈ 1.2 µM)
MIC ([1]; Streptococcus pneumoniae, strain 9, ParC S79-Y, ParE None, GyrA None, GyrB None): 1 µg/mL (≈ 2.4 µM)
MIC ([1]; Streptococcus pneumoniae, strain 10, ParC S79-F, ParE I460-V, GyrA S81-C, GyrB None): 1 µg/mL (≈ 2.4 µM)
MIC ([1]; Streptococcus pneumoniae, strain 10, ParC S79-F, ParE I460-V, GyrA S83-C, GyrB None): 1 µg/mL (≈ 2.4 µM)
MIC ([1]; Streptococcus pneumoniae, strain 11, ParC S79-F, ParE I460-V, GyrA S81-F, GyrB None): 1 µg/mL (≈ 2.4 µM)
MIC ([1]; Streptococcus pneumoniae, strain 11, ParC S79-F, ParE I460-V, GyrA S83-F, GyrB None): 1 µg/mL (≈ 2.4 µM)
MIC ([1]; Streptococcus pneumoniae, strain 12, ParC S79-F, ParE I460-V, GyrA None, GyrB D435-N): 1 µg/mL (≈ 2.4 µM)
MIC ([1]; Streptococcus pneumoniae, strain 13, ParC S79-F, ParE I460-V, GyrA None, GyrB E474-K): 1 µg/mL (≈ 2.4 µM)
MIC ([1]; Streptococcus pneumoniae, strain 14, ParC S79-F, ParE I460-V, GyrA S81-F, GyrB None): 1 µg/mL (≈ 2.4 µM)
MIC ([1]; Streptococcus pneumoniae, strain 14, ParC S79-F, ParE I460-V, GyrA S83-F, GyrB None): 1 µg/mL (≈ 2.4 µM)
MIC ([1]; Streptococcus pneumoniae, strain 15, ParC 79-F, ParE I460-V, GyrA S83-F, GyrB None): 1 µg/mL (≈ 2.4 µM)
MIC ([1]; Streptococcus pneumoniae, strain 15, ParC S79-F, ParE I460-V, GyrA S81-F, GyrB None): 1 µg/mL (≈ 2.4 µM)
MIC ([1]; Streptococcus pneumoniae, strain 16, ParC S79-F, ParE I460-V, GyrA S81-F, GyrB None): 2 µg/mL (≈ 4.8 µM)
MIC ([1]; Streptococcus pneumoniae, strain 16, ParC S79-F, ParE I460-V, GyrA S83-F, GyrB None): 2 µg/mL (≈ 4.8 µM)
MIC ([1]; Streptococcus pneumoniae, strain 17, ParC D83-N, ParE None, GyrA S81-F, GyrB None): 2 µg/mL (≈ 4.8 µM)
MIC ([1]; Streptococcus pneumoniae, strain 17, ParC D83-N, ParE None, GyrA S83-F, GyrB None): 2 µg/mL (≈ 4.8 µM)
MIC ([1]; Streptococcus pneumoniae, strain 18, ParC S79-F, ParE I460-V, GyrA S81-F, GyrB None): 2 µg/mL (≈ 4.8 µM)
MIC ([1]; Streptococcus pneumoniae, strain 18, ParC S79-F, ParE I460-V, GyrA S83-F, GyrB None): 2 µg/mL (≈ 4.8 µM)
MIC ([1]; Streptococcus pneumoniae, strain 19, ParC S79-F, ParE I460-V, GyrA S81-F, GyrB None): 2 µg/mL (≈ 4.8 µM)
MIC ([1]; Streptococcus pneumoniae, strain 19, ParC S79-F, ParE I460-V, GyrA S83-F, GyrB None): 2 µg/mL (≈ 4.8 µM)
MIC ([1]; Streptococcus pneumoniae, strain 20, ParC S79-F, ParE I460-V, GyrA E85-K, GyrB None): 2 µg/mL (≈ 4.8 µM)
MIC ([1]; Streptococcus pneumoniae, strain 20, ParC S79-F, ParE I460-V, GyrA E87-K, GyrB None): 2 µg/mL (≈ 4.8 µM)
MIC ([1]; Streptococcus pneumoniae, strain 21, ParC S79-F, ParE I460-V, GyrA S81-F, GyrB None): 1 µg/mL (≈ 2.4 µM)
MIC ([1]; Streptococcus pneumoniae, strain 21, ParC S79-F, ParE I460-V, GyrA S83-F, GyrB None): 1 µg/mL (≈ 2.4 µM)
MIC ([1]; Streptococcus pneumoniae, strain 22, ParC S79-F, ParE I460-V, GyrA S81-Y, GyrB None): 2 µg/mL (≈ 4.8 µM)
MIC ([1]; Streptococcus pneumoniae, strain 22, ParC S79-F, ParE I460-V, GyrA S83-Y, GyrB None): 2 µg/mL (≈ 4.8 µM)
MIC ([1]; Streptococcus pneumoniae, strain 23, ParC S79-Y, ParE None, GyrA S81-A, GyrB None): 2 µg/mL (≈ 4.8 µM)
MIC ([1]; Streptococcus pneumoniae, strain 23, ParC S79-Y, ParE None, GyrA S83-A, GyrB None): 2 µg/mL (≈ 4.8 µM)
MIC Range ([1]; agar dilution, 28 strains with ciprofloxacin MICs ≧8.0 μg/ml): 0.25 to 8 µg/mL
MIC (pneumococcal strains; strain 1 (S) penicillin susceptible): 0.06 µg/mL (≈ 0.144 µM)
MIC (pneumococcal strains; strain 2 (S) penicillin susceptible): 0.06 µg/mL (≈ 0.144 µM)
MIC (pneumococcal strains; strain 3 (S) penicillin susceptible, quinolone-resistant): 8 µg/mL (≈ 19.2 µM)
MIC (pneumococcal strains; strain 4 (S) penicillin susceptible, quinolone-resistant): 4 µg/mL (≈ 9.61 µM)
MIC (pneumococcal strains; strain 5 (I) penicillin intermediate): 0.06 µg/mL (≈ 0.144 µM)
MIC (pneumococcal strains; strain 6 (I) penicillin intermediate): 0.06 µg/mL (≈ 0.144 µM)
MIC (pneumococcal strains; strain 7 (I) penicillin intermediate): 0.06 µg/mL (≈ 0.144 µM)
MIC (pneumococcal strains; strain 8 (I) penicillin intermediate): 0.125 µg/mL (≈ 0.3 µM)
MIC (pneumococcal strains; strain 9 (R) penicillin resistant): 0.125 µg/mL (≈ 0.3 µM)
MIC (pneumococcal strains; strain 10 (I)): 0.06 µg/mL (≈ 0.144 µM)
MIC (pneumococcal strains; strain 11 (R) penicillin resistant): 0.06 µg/mL (≈ 0.144 µM)
MIC (pneumococcal strains; strain 12 (R) penicillin resistant): 0.125 µg/mL (≈ 0.3 µM)
MIC50 [2]: 1 µg/mL (≈ 2.4 µM)
MIC Range [2]: 0.25 to 8.0 µg/mL

Source: US20040044006A1, “Methods of use of quinolone compounds against pneumococcal and haemophilus bacteria” (priority 1999, published 2004)
